# Legend:
# FPTase [1] = target: T1, FPTase (Homo sapiens, UniProt P49354+P49356); test: in vitro FTase Inhibition Assay, H-Ras used as substrate for farnesylation; type: biochemical
# Description: (§1) Enzyme test procedure: FPTase inhibition in vitro assay was performed according to James, G. L., Brown, M. S., and Goldstein, J. L., Methods in Enzymology, 1995, 255, 38-46; and Garcia, M. A., et al., J. Biol. Chem., 1993, 268, 18415-18420.
# (§2) Materials—Purified FPTase (Moomaw, J. F. and Casey, P. J., J. Biol. Chem., 1992, 267, 17438-17443), purified His6-Ras, inhibitor compounds at 10 mg/ml or 10 mM in 100% DMSO, ^3H-FPP (50,000 dpm/pmol) Amersham, TCA/SDS (6%/2%), TCA (6%), Glass fiber filters ([…]), vacuum manifold or 96 well filtration plates.
# (§3) Methods—1. Dilute FPTase inhibitors from stock solutions to 2.5× in 2.5% DMSO, 10 mM DTT, 0.5% octyl-B-glucoside. 2. Solution #1 is added to FPTase reaction in a volume of […]. 3. Standard reaction mix, […], contains 50 mM Tris (7.5), 10 mM ZnCl2, 3 mM MgCl2, 20 mM KCl, 5 mM DTT, 0.2% octyl-B-glucoside, 1% DMSO, […] His6-Ras, 10 ng FPTase, and various concentrations of FPTase inhibitors. 4. Incubate for 30-90 min at 25° C. 5. Stop reactions with TCA/SDS (6%/2%), hold at 4° C. for 45-60 min. 6. Filter by manifold or 96 well plate, wash filter 3-5× with TCA (6%). 7. Add scintillant to filters, measure ^3H-FPP incorporation into Ras protein.
# (§4) Analysis of Results—Percent inhibition by test compounds is determined by the following:
# (§5) (cpm from precipitated Ras with test compounds)−(background cpm)×100=% inhibition.
# (§6) (cpm from precipitated Ras without test compounds)−(background cpm)
# FPTase [2] = target: T1, FPTase; test: in vitro FTase Inhibition Assay, K-Ras used as substrate for farnesylation; type: biochemical; settings: Table I
# Description: as §1, §2, §3, §4, §5, §6
# [3] = Table II, read-out: IC50 (wi. H-Ras)
"IC50 (FPTase [1]; Table I, read-out: IC50 H-Ras*)",IC50 (FPTase [2]),IC50 (FPTase [1]; [3]),Compound
0.006 to 0.032 µM,0.08 to 0.31 µM,–,"5-(4-Iodobenzenesulfonyl)-5-[5-(2-methyl-4-nitrophenyl)pent-4-ynyl]-thiazolidine-2,4-dione [Example 131]"
0.001 to 0.032 µM,0.02 to 0.22 µM,–,"5-[5-(2-Methyl-4-nitrophenyl)pent-4-ynyl]-5-[4-(pyridin-4-yloxy)-benzenesulfonyl]thiazolidine-2,4-dione [Example 128]"
0.15 to 0.3 µM,1 to 3.6 µM,–,"5-[5-(4-Chloro-2-methylphenyl)pent-4-ynyl]-5-(4-trifluoromethoxybenzenesulfonyl)-thiazolidine-2,4-dione [Example 140]"
0.0033 µM,0.033 µM,–,"COc1ccc(S(=O)(=O)C2(CCCC#Cc3cc(NC(=O)OC(C)(C)C)ccc3C)SC(=O)NC2=O)cc1 (single isomer, unassigned; less polar) [Example 222, Enantiomer of (3-{5-[5-(4-Methoxybenzenesulfonyl)-2,4-dioxothiazolidin-5-yl]pent-1-ynyl}-4-methylphenyl)carbamic Acid tert-Butyl Ester (Less Polar)]"
0.063 µM,> 1 µM,–,"COc1ccc(S(=O)(=O)C2(CCCC#Cc3cc(NC(=O)OC(C)(C)C)ccc3C)SC(=O)NC2=O)cc1 (single isomer, unassigned; more polar) [Example 223, Enantiomer of (3-{5-[5-(4-Methoxybenzenesulfonyl)-2,4-dioxothiazolidin-5-yl]pent-1-ynyl}-4-methylphenyl)carbamic Acid tert-Butyl Ester (More Polar)]"
0.075 to 0.15 µM,3.5 to 5.5 µM,–,"COc1ccc(S(=O)(=O)C2(CCCC#Cc3ccc(Cl)cc3)SC(=O)NC2=O)cc1 (stereo not shown) [Example 97, 5-[5-(4-Chlorophenyl)pent4-ynyl]-5-(4-methoxyphenylsulfonyl)-thiazolidine-2,4-dione]"
0.05 to 0.15 µM,1.5 to 1.7 µM,–,"O=C1NC(=O)C(CCCC#Cc2ccc(Cl)cc2)(S(=O)(=O)c2ccc(F)cc2)S1 (stereo not shown) [Example 105, 5-[5-(4-Chlorophenyl)pent-4-ynyl]-5-(4-fluorobenzenesulfonyl)thiazolidine-2,4-dione]"
0.065 to 0.13 µM,1.4 to 2.1 µM,–,"O=C1NC(=O)C(CCCC#Cc2ccc(Cl)cc2)(S(=O)(=O)c2cccc3cccnc23)S1 (stereo not shown) [Example 109, 5-[5-(4-Chlorophenyl)pent-4-ynyl]-5-(quinoline-8-sulfonyl)thiazolidine-2,4-dione]"
0.4 µM,7 µM,–,"O=C1NC(=O)C(CCCC#Cc2ccc(Cl)cc2)(S(=O)(=O)c2ccc([N+](=O)[O-])cc2)S1 (stereo not shown) [Example 110, 5-[5-(4-Chlorophenyl)pent-4-ynyl]-5-(4-nitrobenzenesulfonyl)thiazolidine-2,4-dione]"
0.012 to 0.32 µM,0.16 to 0.23 µM,–,"O=C1NC(=O)C(CCCC#Cc2cc(Cl)ccc2Cl)(S(=O)(=O)c2ccc(I)cc2)S1 (stereo not shown) [Example 115, 5-[5-(2,5-Dichloro-phenyl)pent-4-ynyl]-5-(4-iodobenzenesulfonyl)-thiazolidine-2,4-dione]"
0.03 to 0.05 µM,0.23 to 1 µM,–,"COc1ccc(S(=O)(=O)C2(CCCC#Cc3cc([N+](=O)[O-])ccc3C)SC(=O)NC2=O)cc1 (stereo not shown) [Example 122, 5-(4-Methoxybenzenesulfonyl)-5-[5-(2-methyl-5-nitrophenyl)pent-4-ynyl]thiazolidine-2,4-dione]"
0.08 to 0.082 µM,1 to 2.8 µM,–,"COc1ccc(S(=O)(=O)C2(CCCC#Cc3cc([N+](=O)[O-])ccc3OC)SC(=O)NC2=O)cc1 (stereo not shown) [Example 123, 5-(4-Methoxybenzenesulfonyl)-5-[5-(2-methoxy-5-nitrophenyl)pent-4-ynyl]thiazolidine-2,4-dione]"
0.023 to 0.056 µM,0.32 to 1 µM,–,"COc1ccc(S(=O)(=O)C2(CCCC#Cc3ccc([N+](=O)[O-])cc3C)SC(=O)NC2=O)cc1 (stereo not shown) [Example 130, 5-(4-Methoxybenzenesulfonyl)-5-[5-(2-methyl-4-nitrophenyl)-pent-4-ynyl]-thiazolidine-2,4-dione]"
0.041 to 0.073 µM,0.21 to 1 µM,–,"COc1ccc(S(=O)(=O)C2(CCCC#Cc3ccc([N+](=O)[O-])cc3OC)SC(=O)NC2=O)cc1 (stereo not shown) [Example 132, 5-(4-Methoxybenzenesulfonyl)-5-[5-(2-methoxy-4-nitrophenyl)pent-4-ynyl]thiazolidine-2,4-dione]"
0.04 to 0.2 µM,0.054 to 1 µM,–,"COc1ccc(S(=O)(=O)C2(CCCC#Cc3cc(F)cc([N+](=O)[O-])c3)SC(=O)NC2=O)cc1 (stereo not shown) [Example 133, 5-[5-(3-Fluoro-5-nitrophenyl)pent-4-ynyl]-5-(4-methoxybenzenesulfonyl)-thiazolidine-2,4-dione]"
0.017 to 0.03 µM,0.04 to 1 µM,–,"COc1ccc(S(=O)(=O)C2(CCCC#Cc3ccc(Cl)cc3C)SC(=O)NC2=O)cc1 (stereo not shown) [Example 142, 5-[5-(4-Chloro-2-methylphenyl)pent-4-ynyl]-5-(4-methoxybenzene-sulfonyl)-thiazolidine-2,4-dione]"
0.03 µM,0.85 µM,–,"COc1ccc(S(=O)(=O)C2(CCCC#Cc3ccc(Br)cc3C)SC(=O)NC2=O)cc1 (stereo not shown) [Example 143, 5-[5-(4-Bromo-2-methy-phenyl)pent-4-ynyl]-5-(4-methoxybenzene-sulfonyl)-thiazolidine-2,4-dione]"
1.2 to 1.7 µM,5.6 to 10 µM,–,"COc1ccc(S(=O)(=O)C2(CCCC#Cc3ccc(NC(=O)OC(C)(C)C)cc3)SC(=O)NC2=O)cc1 (stereo not shown) [Example 145, (4-{5-[5-(4-Methoxybenzensulfonyl)-2,4-dioxothiazolidin-5-yl)pent-1-ynyl}phenyl)carbamic Acid tert-Butyl Ester]"
0.0068 to 0.21 µM,0.08 to 0.1 µM,–,"Cc1ccc(C(=O)NC(C)(C)C)cc1C#CCCCC1(S(=O)(=O)c2ccc(I)cc2)SC(=O)NC1=O (stereo not shown) [Example 147, N-tert-Butyl-3-{5-[5-(4-iodobenzenesulfonyl)-2,4-dioxothiazol-idin-5-yl]-pent-1-ynyl}-4-methyl-benzamide]"
0.45 to 0.5 µM,1 to 4.9 µM,–,"COc1ccc(S(=O)(=O)C2(CCCC#Cc3ccc(NC(=O)OC(C)(C)C)cc3C)SC(=O)NC2=O)cc1 (stereo not shown) [Example 149, (4-{5-[5-(4-Methoxybenzenesulfonyl)-2,4-dioxo-thiazolidin-5-yl)pent-1-ynyl}-3-methylphenyl)carbamic Acid tert-Butyl Ester]"
0.53 to 0.7 µM,0.21 to 1 µM,–,"COc1ccc(S(=O)(=O)C2(CCCC#Cc3ccc(NC(=O)OC(C)(C)C)cc3C(F)(F)F)SC(=O)NC2=O)cc1 (stereo not shown) [Example 151, (4-{5-[5-(4-Methoxybenzenesulfonyl)-2,4-dioxothiazolidin-5-yl]pent-1-ynyl}-3-trifluoromethylphenyl)-carbamic Acid tert-Butyl Ester]"
0.2 µM,3.3 µM,–,"COc1ccc(S(=O)(=O)C2(CC#Cc3ccc(-c4ccccc4)cc3)SC(=O)NC2=O)cc1 (stereo not shown) [Example 171, 5-(3-Biphenyl-4-yl-prop-2-ynyl)-5-(4-methoxybenzenesulfonyl)-thiazolidine-2,4-dione]"
0.01 to 0.032 µM,0.053 to 0.52 µM,–,"COc1ccc(S(=O)(=O)C2(CCCC#Cc3cc(NC(=O)OCc4ccccc4)ccc3C)SC(=O)NC2=O)cc1 (stereo not shown) [Example 175, (3-{5-[5-(4-Methoxybenzenesulfonyl)-2,4-dioxothiazolidin-5-yl]pent-1-ynyl}-4-methylphenyl)carbamic Acid Benzyl Ester]"
0.0032 to 0.032 µM,0.03 to 0.32 µM,–,"COc1ccc(S(=O)(=O)C2(CCCC#Cc3cc(NC(=O)OCc4ccc([N+](=O)[O-])cc4)ccc3C)SC(=O)NC2=O)cc1 (stereo not shown) [Example 176, (3-{5-[5-(4-Methoxybenzenesulfonyl)-2,4-dioxothiazolidin-5-yl]pent-1-ynyl}-4-methylphenyl)carbamic Acid 4-Nitro- Benzyl Ester]"
–,–,0.3 µM,"O=C1NC(=O)C(CC#Cc2ccc(C(F)(F)F)cc2)(S(=O)(=O)c2ccc(F)cc2)S1 (stereo not shown) [Example 264, 5-(4-Fluoro-benzenesulfonyl)-5-[3-(4-trifluoromethyl-phenyl)-prop-2-ynyl)-thiazolidine-2,4-dione]"
–,–,1.5 µM,"O=C1NC(=O)C(CC#Cc2ccc(Cl)cc2)(S(=O)(=O)c2ccc3ccccc3n2)S1 (stereo not shown) [Example 265, 5-[3-(4-Chloro-phenyl)-prop-2-ynyl]-5-(quinoline-2-sulfonyl)-thiazolidine-2,4-dione]"
–,–,0.5 µM,"O=C1NC(=O)C(CC#Cc2cc(C(F)(F)F)cc(C(F)(F)F)c2)S1 (stereo not shown) [Example 266, 5-[3-(3,5-bis-Trifluoromethyl-phenyl)-prop-2-ynyl]-thiazolidine-2,4-dione]"
–,–,5 µM,"Cc1ccc(SC2(CC#Cc3ccc(Cl)cc3)SC(=O)NC2=O)cc1 (stereo not shown) [Example 267, 5-[3-(4-Chloro-phenyl)-prop-2-ynyl]-5-(p-tolylsulfanyl)-thiazolidine-2,4-dione]"
